Results taken from patent US20220356147A1, “COMPOUNDS AND METHODS FOR POTENTIATING COLISTIN ACTIVITY” (University of Notre Dame du Lac, priority 2019, published 2022).
Where two headings read alike, the source gives them in different places.

Tests used:
AB 4106 = assay: Broth microdilution, standalone MIC of compound; type: cell-based, A. baumannii; conditions: Acinetobacter baumannii, 16 h, read-out: MIC of compound alone, AB 4106
Experimental: Broth microdilution method for the determination of minimum inhibitory concentrations: Bacteria were cultured for 4 to 6 hours in CAMHB and subcultured to 1.04×10^6 CFU/mL for AB 4106 and 1.96×10^6 CFU/mL for KP B9 in fresh CAMHB. To aliquots (1 mL) was added compound from stock solutions in DMSO, such that the compound concentration equaled the highest concentration tested. Samples were then dispensed (200 μL) into the first row of a 96-well microtiter plate in which all but the final row of subsequent wells were prefilled with 100 μL of the untreated bacterial subculture. The final row was filled with media to act as a sterility control and blank. Row one wells were mixed 6-7 times, then, 100 μL was withdrawn and transferred to row two. Row two wells were mixed 6-7 times followed by a 100 μL transfer from row two to row three. This procedure was used to serially dilute the rest of the rows of the microtiter plate, excluding the last prefilled row, which was used to measure growth in the absence of compound. Plates were then sealed with GLAD Press'n Seal and incubated under stationary conditions at 37 C. […] MIC values were determined as the minimum concentration required to achieve 90% growth inhibition compared to growth in untreated wells.

[1] = tested on: A. baumannii 4106 (AB4106); assay: Broth microdilution, colistin potentiation; type: cell-based
Experimental: (§1) Broth microdilution method for measurement of colistin potentiation: Bacteria were cultured for 4 to 6 hours in CAMHB and diluted to 1.04×10^6 CFU/mL for AB 4106 and 1.96×10^6 CFU/mL for KP B9 in fresh CAMHB. To aliquots (4 mL) was added compound from stock solutions in DMSO. One aliquot was not dosed to allow measurement of the colistin MIC in the absence of compound. A 1 mL aliquot of each sample was dosed with colistin, and from this 200 μL was dispensed into the first row of a 96-well microtiter plate in which all but the final row of subsequent wells was prefilled with 100 μL of the corresponding compound dosed bacterial suspension The final row was filled with media to act as a sterility control and blank. Row one wells were mixed 6-7 times, then, 100 μL was withdrawn and transferred to row two. Row two wells were mixed 6-7 times followed by a 100 μL transfer from row two to row three. This procedure was used to serially dilute the rest of the rows of the microtiter plate, excluding the last prefilled row, which was used to measure growth in the presence of compound alone. Plates were then sealed with GLAD
(§2) Press'n Seal and incubated under stationary conditions at 37° C. […] MIC values were determined as the minimum concentration required to achieve 90% growth inhibition compared to growth in untreated wells.

AB4106 and KPB9 = assay: Initial screen for colistin resistance suppression, statements in words for both strains; type: cell-based, A. baumannii and K. pneumoniae; conditions: compound at 5 μM
Experimental: as §1, §2

[2] = compound at 5 μM, colistin alone 2048 μg/mL

Compound	MIC (AB 4106; standalone, no colistin) [µM]	Colistin MIC fold reduction, AB 4106 [1, 2] [fold]	Colistin potentiation activity in words, AB4106 ([1]; compound at 5 μM)	Colistin MIC fold reduction, AB 4106 ([1]; compound at 1 μM) [fold]	Colistin MIC fold reduction, AB 4106 ([1]; compound at 3 μM) [fold]	Colistin potentiation activity in words, compared to IMD-0354 (AB4106 and KPB9)	MIC (AB 4106) [µM]
Cc1cc(C)cc(NC(=O)c2cc(I)ccc2O)c1 [Compound 53]	> 200	256	–	–	–	–	–
O=C(Nc1cc(C(F)(F)F)cc(C(F)(F)F)c1)c1cc(O)ccc1O [Compound 16, N-(3,5-bis(trifluoromethyl)phenyl)-2,5-dihydroxybenzamide]	> 200	≤ 16	essentially inactive	–	–	–	–
O=C(Nc1cc(C(F)(F)F)ccc1C(F)(F)F)c1cc(Br)ccc1O [Compound 49]	200	2048	–	256	1024	–	–
O=C(Nc1cc(Cl)cc(Cl)c1)c1cc(Cl)cc(Cl)c1O [Compound 62]	100	512	–	32	256	–	–
O=C(Nc1cc(F)cc(F)c1)c1ccc(C(F)(F)F)cc1O [Compound 54, N-(3,5-difluorophenyl)-2-hydroxy-4-(trifluoromethyl)benzamide]	200	1024	–	64	512	–	–
Cc1cc(C)cc(NC(=O)c2cc(Br)ccc2O)c1 [Compound 48]	> 200	128	–	–	–	–	–
O=C(Nc1cc(Cl)c(Br)c(Cl)c1)c1cc(Cl)ccc1O [Compound 41, N-(4-bromo-3,5-dichlorophenyl)-5-chloro-2-hydroxybenzamide]	> 200	128	–	–	–	–	–
O=C(Nc1cc(Cl)cc(Cl)c1)c1cc(Br)ccc1O [Compound 46]	> 200	512	–	32	256	–	–
O=C(Nc1cc(Cl)cc(Cl)c1)c1cc(F)ccc1O [Compound 43]	> 200	1024	–	128	512	–	–
O=C(Nc1cc(F)cc(F)c1)c1cc(F)ccc1O [Compound 42]	200	256	–	–	–	–	–
O=C(Nc1ccc(F)c([N+](=O)[O-])c1)c1cc(Cl)ccc1O [Compound 35, 5-chloro-N-(4-fluoro-3-nitrophenyl)-2-hydroxybenzamide]	> 200	32	Neither compound displayed significant activity	–	–	–	–
COc1ccc(O)c(C(=O)Nc2cc(C(F)(F)F)cc(C(F)(F)F)c2)c1 [Compound 11]	> 200	256	–	–	–	–	–
O=C(Nc1cccc(Cl)c1)c1cc(Cl)ccc1O [Compound 40]	> 200	1024	–	≤ 16	256	–	–
O=C(Nc1cc(F)cc(F)c1)c1cc(I)ccc1O [Compound 50]	> 200	512	–	64	256	–	–
O=C(Nc1ccc(F)cc1Br)c1cc(Cl)ccc1O [Compound 33]	> 200	128	–	–	–	–	–
Cc1cc(C)cc(NC(=O)c2cccc(Cl)c2O)c1 [Compound 58, 3-chloro-N-(3,5-dimethylphenyl)-2-hydroxybenzamide]	> 200	≤ 16	–	–	–	–	–
Cc1cc(C)cc(NC(=O)c2cc(Cl)ccc2O)c1 [Compound 20]	> 200	1024	–	16	512	–	–
O=C(Nc1cc(F)cc(F)c1)c1cc(Br)ccc1O [Compound 45]	> 200	1024	–	256	512	–	–
Cc1cc(C)cc(NC(=O)c2cc(Cl)cc(Cl)c2O)c1 [Compound 59, 3,5-dichloro-N-(3,5-dimethylphenyl)-2-hydroxybenzamide]	> 200	≤ 16	–	–	–	–	–
O=C(Nc1c(F)cccc1Br)c1cc(Cl)ccc1O [Compound 34]	> 200	≤ 16	–	–	–	–	–
O=C(Nc1cc(C(F)(F)F)cc(C(F)(F)F)c1)c1cc(O)cc(Cl)c1 [Compound 3, N-(3,5-bis(trifluoromethyl)phenyl)-3-chloro-5-hydroxybenzamide]	> 200	–	–	–	–	essentially equipotent activity to IMD-0354	–
Cc1ccc(O)c(C(=O)Nc2cc(C(F)(F)F)cc(C(F)(F)F)c2)c1 [Compound 12]	> 200	512	–	≤ 16	256	–	–
O=C(Nc1cc(Br)cc(Br)c1)c1cc(Cl)cc(Cl)c1O [Compound 60, 3,5-dichloro-N-(3,5-dibromophenyl)-2-hydroxybenzamide]	50	2048	–	128	512	–	–
O=C(Nc1cc(Br)cc(Br)c1)c1ccc(C(F)(F)F)cc1O [Compound 56]	> 200	2048	–	256	1024	–	–
O=C(Nc1ccc(Br)cc1)c1cc(Cl)ccc1O [Compound 37]	–	2048	–	128	1024	–	> 200
O=C(Nc1cc(Cl)cc(Cl)c1)c1ccc(C(F)(F)F)cc1O [Compound 55, N-(3,5-dichlorophenyl)-2-hydroxy-4-(trifluoromethyl)benzamide]	> 200	2048	–	256	1024	–	–
Cc1cc(C)cc(NC(=O)c2ccc(C(F)(F)F)cc2O)c1 [Compound 57, N-(3,5-dimethylphenyl)-2-hydroxy-4-(trifluoromethyl)benzamide]	> 200	256	–	–	–	–	–
Cc1cc(C)cc(NC(=O)c2cc(F)ccc2O)c1 [Compound 44, N-(3,5-dimethylphenyl)-5-fluoro-2-hydroxybenzamide]	> 200	≤ 16	–	–	–	–	–
O=C(Nc1cc(Br)cc(Br)c1)c1cc(Br)ccc1O [Compound 47]	> 200	1024	–	256	1024	–	–
Cc1ccc(NC(=O)c2cc(Cl)ccc2O)cc1C(F)(F)F [Compound 30]	> 200	32	–	–	–	–	–
